Test results: ChEMBL document CHEMBL4507256 (2021)

Columns and labels:
[1] = biological target: Activin receptor type-2B (Homo sapiens) (UniProt Q13705); settings: Compound concentration 1000.0 nM
[2] = tested on: ALK tyrosine kinase receptor (Homo sapiens), Q9UM73 [C1156Y]; settings: Compound concentration 1000.0 nM
[3] = biological target: Calcium/calmodulin-dependent protein kinase type II subunit alpha (Homo sapiens) (UniProt Q9UQM7); settings: Compound concentration 1000.0 nM
[4] = biological target: Calcium/calmodulin-dependent protein kinase type IV (Homo sapiens) (UniProt Q16566); settings: Compound concentration 1000.0 nM
[5] = biological target: Cyclin-dependent kinase 4 (Homo sapiens) (UniProt P11802); settings: Compound concentration 1000.0 nM
[6] = biological target: Cyclin-dependent kinase 5 (Homo sapiens) (UniProt Q00535); settings: Compound concentration 1000.0 nM
[7] = biological target: Cyclin-dependent kinase-like 2 (Homo sapiens) (UniProt Q92772); settings: Compound concentration 1000.0 nM
[8] = biological target: Casein kinase I isoform alpha-like (Homo sapiens) (UniProt Q8N752); settings: Compound concentration 1000.0 nM
[9] = tested on: Epidermal growth factor receptor (Homo sapiens), P00533 [UNDEFINED MUTATION]; settings: Compound concentration 1000.0 nM
[10] = biological target: Ephrin type-B receptor 2 (Homo sapiens) (UniProt P29323); settings: Compound concentration 1000.0 nM
[11] = biological target: Fibroblast growth factor receptor 1 (Homo sapiens) (UniProt P11362); settings: Compound concentration 1000.0 nM
[12] = biological target: Fibroblast growth factor receptor 2 (Homo sapiens) (UniProt P21802); settings: Compound concentration 1000.0 nM
[13] = biological target: Fibroblast growth factor receptor 3 (Homo sapiens) (UniProt P22607); settings: Compound concentration 1000.0 nM
[14] = biological target: Tyrosine-protein kinase Fgr (Homo sapiens) (UniProt P09769); settings: Compound concentration 1000.0 nM
[15] = biological target: Rhodopsin kinase GRK7 (Homo sapiens) (UniProt Q8WTQ7); settings: Compound concentration 1000.0 nM
[16] = biological target: Serine/threonine-protein kinase ICK (Homo sapiens) (UniProt Q9UPZ9); settings: Compound concentration 1000.0 nM
[17] = biological target: Interleukin-1 receptor-associated kinase 4 (Homo sapiens) (UniProt Q9NWZ3); settings: Compound concentration 1000.0 nM
[18] = biological target: MAP kinase-activated protein kinase 5 (Homo sapiens) (UniProt Q8IW41); settings: Compound concentration 1000.0 nM
[19] = biological target: Dual specificity mitogen-activated protein kinase kinase 4 (Homo sapiens) (UniProt P45985); settings: Compound concentration 1000.0 nM
[20] = tested on: Hepatocyte growth factor receptor (Homo sapiens), P08581 [M1250T]; settings: Compound concentration 1000.0 nM
[21] = biological target: Serine/threonine-protein kinase MRCK beta (Homo sapiens) (UniProt Q9Y5S2); settings: Compound concentration 1000.0 nM
[22] = biological target: Muscle, skeletal receptor tyrosine-protein kinase (Homo sapiens) (UniProt O15146); settings: Compound concentration 1000.0 nM
[23] = biological target: Serine/threonine-protein kinase Nek10 (Homo sapiens) (UniProt Q6ZWH5); settings: Compound concentration 1000.0 nM
[24] = biological target: Serine/threonine-protein kinase PAK 5 (Homo sapiens) (UniProt Q9P286); settings: Compound concentration 1000.0 nM
[25] = biological target: Phosphatidylinositol 5-phosphate 4-kinase type-2 gamma (Homo sapiens) (UniProt Q8TBX8); settings: Compound concentration 1000.0 nM
[26] = biological target: Protein kinase C theta type (Homo sapiens) (UniProt Q04759); settings: Compound concentration 1000.0 nM
[27] = biological target: Interferon-induced, double-stranded RNA-activated protein kinase (Homo sapiens) (UniProt P19525); settings: Compound concentration 1000.0 nM
[28] = biological target: cAMP-dependent protein kinase catalytic subunit PRKX (Homo sapiens) (UniProt P51817); settings: Compound concentration 1000.0 nM
[29] = biological target: Protein-tyrosine kinase 2-beta (Homo sapiens) (UniProt Q14289); settings: Compound concentration 1000.0 nM
[30] = tested on: Proto-oncogene tyrosine-protein kinase receptor Ret (Homo sapiens), P07949 [V804M]; settings: Compound concentration 1000.0 nM
[31] = biological target: SRSF protein kinase 1 (Homo sapiens) (UniProt Q96SB4); settings: Compound concentration 1000.0 nM
[32] = biological target: Tyrosine-protein kinase SYK (Homo sapiens) (UniProt P43405); settings: Compound concentration 1000.0 nM
[33] = biological target: Angiopoietin-1 receptor (Homo sapiens) (UniProt Q02763); settings: Compound concentration 1000.0 nM
[34] = biological target: Non-receptor tyrosine-protein kinase TNK1 (Homo sapiens) (UniProt Q13470); settings: Compound concentration 1000.0 nM
[35] = biological target: Serine/threonine-protein kinase VRK2 (Homo sapiens) (UniProt Q86Y07); settings: Compound concentration 1000.0 nM
[36] = biological target: Wee1-like protein kinase 2 (Homo sapiens) (UniProt P0C1S8); settings: Compound concentration 1000.0 nM
[37] = biological target: Tyrosine-protein kinase ZAP-70 (Homo sapiens) (UniProt P43403); settings: Compound concentration 1000.0 nM
[38] = biological target: Histamine H3 receptor (Homo sapiens) (UniProt Q9Y5N1); settings: Compound concentration 10.0 uM
[39] = biological target: T1, Muscarinic acetylcholine receptor M2 (Homo sapiens) (UniProt P08172); settings: Compound concentration 10.0 uM
T1 sequence (whole entry): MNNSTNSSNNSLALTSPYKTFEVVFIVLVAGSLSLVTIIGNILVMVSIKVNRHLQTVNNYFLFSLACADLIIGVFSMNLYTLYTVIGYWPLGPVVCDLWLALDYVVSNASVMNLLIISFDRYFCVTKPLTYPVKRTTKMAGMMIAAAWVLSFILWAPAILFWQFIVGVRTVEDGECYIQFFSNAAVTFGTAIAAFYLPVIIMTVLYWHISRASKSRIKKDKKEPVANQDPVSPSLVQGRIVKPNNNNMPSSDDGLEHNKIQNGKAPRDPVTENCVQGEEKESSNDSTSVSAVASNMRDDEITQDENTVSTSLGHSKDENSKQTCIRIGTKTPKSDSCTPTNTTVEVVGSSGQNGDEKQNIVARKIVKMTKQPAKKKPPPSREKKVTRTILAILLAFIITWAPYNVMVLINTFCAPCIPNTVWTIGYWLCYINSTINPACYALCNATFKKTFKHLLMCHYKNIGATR

Chain of Serine/threonine-protein kinase Nek10 (Homo sapiens) (Q6ZWH5 whole entry): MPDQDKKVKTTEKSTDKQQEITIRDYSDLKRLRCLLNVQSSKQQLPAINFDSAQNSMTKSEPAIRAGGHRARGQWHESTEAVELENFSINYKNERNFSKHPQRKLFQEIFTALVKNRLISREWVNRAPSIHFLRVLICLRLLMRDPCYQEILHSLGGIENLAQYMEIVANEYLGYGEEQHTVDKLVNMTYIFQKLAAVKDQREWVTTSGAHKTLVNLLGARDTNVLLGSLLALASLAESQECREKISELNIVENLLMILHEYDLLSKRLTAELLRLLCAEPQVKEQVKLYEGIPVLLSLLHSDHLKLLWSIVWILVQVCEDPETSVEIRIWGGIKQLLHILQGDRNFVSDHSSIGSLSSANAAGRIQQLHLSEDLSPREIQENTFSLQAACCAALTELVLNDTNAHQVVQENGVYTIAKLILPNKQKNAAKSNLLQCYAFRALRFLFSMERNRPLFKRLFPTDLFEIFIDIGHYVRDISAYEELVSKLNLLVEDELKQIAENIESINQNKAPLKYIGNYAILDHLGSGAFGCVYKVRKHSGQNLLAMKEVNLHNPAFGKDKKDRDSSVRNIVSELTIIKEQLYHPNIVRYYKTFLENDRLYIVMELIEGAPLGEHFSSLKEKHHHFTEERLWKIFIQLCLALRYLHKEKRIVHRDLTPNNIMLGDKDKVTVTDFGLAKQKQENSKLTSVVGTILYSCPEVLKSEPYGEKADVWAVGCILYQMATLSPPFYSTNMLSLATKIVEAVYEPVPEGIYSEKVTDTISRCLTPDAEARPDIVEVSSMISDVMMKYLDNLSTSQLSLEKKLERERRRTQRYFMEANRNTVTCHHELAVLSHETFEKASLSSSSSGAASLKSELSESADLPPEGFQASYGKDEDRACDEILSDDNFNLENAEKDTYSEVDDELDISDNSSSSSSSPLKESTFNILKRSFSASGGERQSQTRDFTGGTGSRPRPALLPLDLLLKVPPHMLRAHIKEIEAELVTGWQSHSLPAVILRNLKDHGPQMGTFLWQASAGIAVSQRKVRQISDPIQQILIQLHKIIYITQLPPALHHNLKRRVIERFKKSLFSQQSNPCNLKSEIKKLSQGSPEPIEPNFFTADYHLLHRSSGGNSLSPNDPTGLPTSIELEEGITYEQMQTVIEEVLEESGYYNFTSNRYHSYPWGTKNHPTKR
Chain of Proto-oncogene tyrosine-protein kinase receptor Ret (Homo sapiens), P07949 [V804M] (P07949 whole entry V804M): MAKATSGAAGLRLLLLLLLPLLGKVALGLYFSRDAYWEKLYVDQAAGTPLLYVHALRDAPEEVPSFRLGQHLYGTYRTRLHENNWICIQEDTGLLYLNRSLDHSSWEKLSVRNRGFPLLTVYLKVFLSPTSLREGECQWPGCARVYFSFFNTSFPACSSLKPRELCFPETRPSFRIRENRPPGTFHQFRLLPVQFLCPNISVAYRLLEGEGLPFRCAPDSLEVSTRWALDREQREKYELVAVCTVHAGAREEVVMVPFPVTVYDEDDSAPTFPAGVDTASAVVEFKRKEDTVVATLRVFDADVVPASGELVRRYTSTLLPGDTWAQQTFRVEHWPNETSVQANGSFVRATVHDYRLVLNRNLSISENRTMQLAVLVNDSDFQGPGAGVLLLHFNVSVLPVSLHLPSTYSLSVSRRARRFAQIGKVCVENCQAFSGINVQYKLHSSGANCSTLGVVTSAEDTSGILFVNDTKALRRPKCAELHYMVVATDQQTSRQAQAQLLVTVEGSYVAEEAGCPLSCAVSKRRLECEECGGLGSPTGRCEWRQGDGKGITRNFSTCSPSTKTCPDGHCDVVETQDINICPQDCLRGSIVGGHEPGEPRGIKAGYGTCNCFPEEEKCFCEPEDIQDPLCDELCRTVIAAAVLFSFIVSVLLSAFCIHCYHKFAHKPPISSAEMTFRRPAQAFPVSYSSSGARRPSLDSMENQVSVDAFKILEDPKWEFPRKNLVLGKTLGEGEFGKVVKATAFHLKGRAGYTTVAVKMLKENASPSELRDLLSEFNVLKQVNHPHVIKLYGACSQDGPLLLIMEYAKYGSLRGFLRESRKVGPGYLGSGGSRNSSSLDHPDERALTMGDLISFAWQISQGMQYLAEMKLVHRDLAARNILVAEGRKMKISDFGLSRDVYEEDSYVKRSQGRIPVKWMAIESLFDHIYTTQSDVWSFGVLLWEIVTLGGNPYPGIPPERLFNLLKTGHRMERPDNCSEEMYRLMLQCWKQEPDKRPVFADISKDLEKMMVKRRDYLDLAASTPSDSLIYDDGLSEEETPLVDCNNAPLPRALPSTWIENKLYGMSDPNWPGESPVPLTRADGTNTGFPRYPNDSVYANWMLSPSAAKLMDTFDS
Chain of Interferon-induced, double-stranded RNA-activated protein kinase (Homo sapiens) (P19525 whole entry): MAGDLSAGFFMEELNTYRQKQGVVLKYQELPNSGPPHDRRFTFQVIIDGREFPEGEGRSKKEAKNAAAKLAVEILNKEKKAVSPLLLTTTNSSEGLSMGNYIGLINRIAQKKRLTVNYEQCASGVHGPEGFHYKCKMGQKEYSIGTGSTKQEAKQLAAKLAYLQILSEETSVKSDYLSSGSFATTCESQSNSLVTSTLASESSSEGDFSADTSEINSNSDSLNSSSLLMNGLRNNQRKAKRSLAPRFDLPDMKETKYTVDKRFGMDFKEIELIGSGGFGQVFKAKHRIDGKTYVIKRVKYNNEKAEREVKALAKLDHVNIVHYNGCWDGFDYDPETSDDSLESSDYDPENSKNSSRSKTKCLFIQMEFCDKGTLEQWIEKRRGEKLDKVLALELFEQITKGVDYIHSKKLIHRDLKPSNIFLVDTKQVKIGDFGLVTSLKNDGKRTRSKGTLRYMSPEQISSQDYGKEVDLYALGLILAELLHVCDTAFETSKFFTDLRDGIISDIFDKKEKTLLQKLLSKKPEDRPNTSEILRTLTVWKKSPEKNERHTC
Chain of Serine/threonine-protein kinase VRK2 (Homo sapiens) (Q86Y07 whole entry): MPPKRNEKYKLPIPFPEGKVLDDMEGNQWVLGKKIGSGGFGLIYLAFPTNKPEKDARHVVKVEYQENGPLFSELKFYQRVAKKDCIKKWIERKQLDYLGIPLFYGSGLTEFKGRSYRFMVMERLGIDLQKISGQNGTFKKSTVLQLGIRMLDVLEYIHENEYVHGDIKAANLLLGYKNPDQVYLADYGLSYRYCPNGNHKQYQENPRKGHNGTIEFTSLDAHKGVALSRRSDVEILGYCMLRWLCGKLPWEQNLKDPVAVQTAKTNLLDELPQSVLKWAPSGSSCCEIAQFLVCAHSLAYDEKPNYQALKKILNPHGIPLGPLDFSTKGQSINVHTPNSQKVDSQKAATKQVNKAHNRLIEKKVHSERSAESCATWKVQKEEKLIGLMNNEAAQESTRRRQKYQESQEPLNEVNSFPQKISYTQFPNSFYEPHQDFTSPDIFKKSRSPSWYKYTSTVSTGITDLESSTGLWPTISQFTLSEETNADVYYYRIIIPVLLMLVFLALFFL
Chain of Cyclin-dependent kinase 5 (Homo sapiens) (Q00535 whole entry, looked up): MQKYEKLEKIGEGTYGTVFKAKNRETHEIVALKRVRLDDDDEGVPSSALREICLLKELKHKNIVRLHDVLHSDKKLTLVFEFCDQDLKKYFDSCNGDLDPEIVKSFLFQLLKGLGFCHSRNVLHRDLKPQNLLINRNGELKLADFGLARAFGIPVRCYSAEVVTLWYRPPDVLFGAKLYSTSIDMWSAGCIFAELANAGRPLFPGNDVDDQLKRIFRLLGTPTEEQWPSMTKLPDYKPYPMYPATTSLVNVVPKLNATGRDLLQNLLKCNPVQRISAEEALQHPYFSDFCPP
Chain of MAP kinase-activated protein kinase 5 (Homo sapiens) (Q8IW41 whole entry): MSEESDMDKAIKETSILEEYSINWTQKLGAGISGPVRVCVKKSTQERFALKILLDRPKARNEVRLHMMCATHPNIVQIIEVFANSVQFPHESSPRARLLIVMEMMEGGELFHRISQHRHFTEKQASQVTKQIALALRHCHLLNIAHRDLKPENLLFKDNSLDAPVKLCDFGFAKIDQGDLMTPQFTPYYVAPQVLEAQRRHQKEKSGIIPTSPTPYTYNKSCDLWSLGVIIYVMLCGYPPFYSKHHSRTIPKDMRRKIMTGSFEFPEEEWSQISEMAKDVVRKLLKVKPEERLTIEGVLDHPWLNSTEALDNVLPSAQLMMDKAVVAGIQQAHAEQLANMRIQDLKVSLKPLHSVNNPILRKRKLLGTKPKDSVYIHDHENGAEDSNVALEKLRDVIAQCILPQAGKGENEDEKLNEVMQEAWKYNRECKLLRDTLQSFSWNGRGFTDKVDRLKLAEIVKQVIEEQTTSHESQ
Chain of Activin receptor type-2B (Homo sapiens) (Q13705 whole entry): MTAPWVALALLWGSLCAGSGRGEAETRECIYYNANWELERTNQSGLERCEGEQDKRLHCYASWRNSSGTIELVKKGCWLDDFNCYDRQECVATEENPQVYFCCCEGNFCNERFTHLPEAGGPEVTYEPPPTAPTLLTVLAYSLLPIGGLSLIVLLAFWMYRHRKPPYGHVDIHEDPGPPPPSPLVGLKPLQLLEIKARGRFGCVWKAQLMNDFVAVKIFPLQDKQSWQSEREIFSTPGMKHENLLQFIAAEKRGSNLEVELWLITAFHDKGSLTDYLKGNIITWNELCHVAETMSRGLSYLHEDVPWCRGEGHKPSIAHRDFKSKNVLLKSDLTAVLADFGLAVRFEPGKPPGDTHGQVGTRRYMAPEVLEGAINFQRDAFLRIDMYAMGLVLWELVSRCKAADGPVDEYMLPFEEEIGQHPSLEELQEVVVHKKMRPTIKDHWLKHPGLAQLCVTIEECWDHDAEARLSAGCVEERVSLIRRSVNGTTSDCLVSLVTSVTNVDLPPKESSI
Chain of Phosphatidylinositol 5-phosphate 4-kinase type-2 gamma (Homo sapiens) (Q8TBX8 whole entry): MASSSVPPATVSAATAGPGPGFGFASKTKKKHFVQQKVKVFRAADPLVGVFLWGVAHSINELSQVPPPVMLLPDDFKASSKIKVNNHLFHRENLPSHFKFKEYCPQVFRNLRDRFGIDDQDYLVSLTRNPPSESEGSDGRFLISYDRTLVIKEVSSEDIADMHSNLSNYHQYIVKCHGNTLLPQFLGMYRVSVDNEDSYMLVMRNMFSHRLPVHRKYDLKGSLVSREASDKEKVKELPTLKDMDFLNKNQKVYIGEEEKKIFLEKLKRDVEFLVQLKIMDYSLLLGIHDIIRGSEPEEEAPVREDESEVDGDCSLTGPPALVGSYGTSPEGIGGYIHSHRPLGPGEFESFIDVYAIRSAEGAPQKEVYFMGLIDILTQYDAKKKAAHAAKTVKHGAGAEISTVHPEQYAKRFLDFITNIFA

Row | Compound | residual activity [1] [%] | residual activity [2] [%] | residual activity [3] [%] | residual activity [4] [%] | residual activity [5] [%] | residual activity [6] [%] | residual activity [7] [%] | residual activity [8] [%] | residual activity [9] [%] | residual activity [10] [%] | residual activity [11] [%] | residual activity [12] [%] | residual activity [13] [%] | residual activity [14] [%] | residual activity [15] [%] | residual activity [16] [%] | residual activity [17] [%] | residual activity [18] [%] | residual activity [19] [%] | residual activity [20] [%] | further results
1 | CCC(=N\O)/C(C)=C/c1ccc(F)c(C)c1 [A-226] | 100 | 100 | 100 | 87 | 100 | 86 | 81 | 83 | 100 | 99 | 57 | 100 | 96 | 86 | 100 | 97 | 95 | 100 | 100 | 88 | residual activity [21]: 69%; residual activity [22]: 100%; residual activity [23]: 100%; residual activity [24]: 100%; residual activity [25]: 85%; residual activity [26]: 88%; residual activity [27]: 100%; residual activity [28]: 94%; residual activity [29]: 98%; residual activity [30]: 100%; residual activity [31]: 100%; residual activity [32]: 76%; residual activity [33]: 85%; residual activity [34]: 100%; residual activity [35]: 100%; residual activity [36]: 100%; residual activity [37]: 38%; inhibition [38]: -0.3%; inhibition [39]: 14.3%
2 | CCC(=N\O)/C(C)=C/c1ccc(F)cc1 [A-079] | 91 | 77 | 81 | 69 | 100 | 68 | 92 | 78 | 69 | 76 | 100 | 93 | 91 | 67 | 85 | 100 | 100 | 91 | 75 | 76 | residual activity [21]: 100%; residual activity [22]: 90%; residual activity [23]: 95%; residual activity [24]: 100%; residual activity [25]: 83%; residual activity [26]: 80%; residual activity [27]: 100%; residual activity [28]: 96%; residual activity [29]: 99%; residual activity [30]: 100%; residual activity [31]: 100%; residual activity [32]: 100%; residual activity [33]: 89%; residual activity [34]: 66%; residual activity [35]: 74%; residual activity [36]: 83%; residual activity [37]: 96%; inhibition [38]: 4.32%; inhibition [39]: 9.31%
